Experimental data published in PubChem BioAssay (NCI).
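Test compounds were applied to cells in 96-well plates for 48 hours at 5 doses. Definition used: TGI = concentration required for complete inhibition of growth.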

Tests used:
Test in all cases: NCI tumour cell line growth inhibition, 48 h
[1] = test system: 786-0 renal
[2] = test system: A498 renal
[3] = test system: A549 NSCLC
[4] = test system: ACHN renal
[5] = test system: CCRF-CEM leukemia
[6] = test system: COLO 205 colon
[7] = test system: DMS 114 small cell lung
[8] = test system: EKVX NSCLC
[9] = test system: HCC-2998 colon
[10] = test system: HCT-15 colon
[11] = test system: HL-60(TB) leukemia
[12] = test system: HOP-18 NSCLC
[13] = test system: HOP-62 NSCLC
[14] = test system: IGROV1 ovarian
[15] = test system: K-562 leukemia
[16] = test system: KM12 colon
[17] = test system: KM20L2 colon
[18] = test system: LOX IMVI melanoma
[19] = test system: LXFL 529 NSCLC
[20] = test system: M14 melanoma
[21] = test system: M19-MEL melanoma
[22] = test system: MALME-3M melanoma
[23] = test system: MOLT-4 leukemia
[24] = test system: NCI-H226 lung
[25] = test system: NCI-H23 lung
[26] = test system: NCI-H460 lung
[27] = test system: NCI-H522 lung
[28] = test system: OVCAR-3 ovarian
[29] = test system: OVCAR-5 ovarian
[30] = test system: OVCAR-8 ovarian
[31] = test system: RPMI-8226 leukemia
[32] = test system: RXF 393 renal
[33] = test system: SF-268 CNS
[34] = test system: SF-295 CNS
[35] = test system: SF-539 CNS
[36] = test system: SK-MEL-2 melanoma
[37] = test system: SK-MEL-28 melanoma
[38] = test system: SK-MEL-5 melanoma
[39] = test system: SK-OV-3 ovarian
[40] = test system: SN12C renal
[41] = test system: SNB-19 CNS
[42] = test system: SNB-75 CNS
[43] = test system: SNB-78 CNS
[44] = test system: SW-620 colon
[45] = test system: TK-10 renal
[46] = test system: U251 CNS
[47] = test system: UACC-257 melanoma
[48] = test system: UACC-62 melanoma
[49] = test system: UO-31 renal
[50] = test system: CAKI-1 renal
[51] = test system: DLD-1 colon
[52] = test system: DMS 273 small cell lung
[53] = test system: HCT-116 colon
[54] = test system: HOP-92 NSCLC
[55] = test system: HT29 colon
[56] = test system: MCF7 breast
[57] = test system: NCI/ADR-RES ovarian
[58] = test system: OVCAR-4 ovarian
[59] = test system: P388 leukemia
[60] = test system: P388/ADR leukemia
[61] = test system: SN12K1 renal
[62] = test system: XF 498 CNS

## C=CCCC(O)c1cc(C)c(O)c(C)c1 (stereo not given)
[1]
  TGI: > 100 µM
[2]
  TGI: > 100 µM
[3]
  TGI: > 100 µM
[4]
  TGI: > 100 µM
[5]
  TGI: > 100 µM
[6]
  TGI: > 100 µM
[7]
  TGI: > 100 µM
[8]
  TGI: > 100 µM
[9]
  TGI: > 100 µM
[10]
  TGI: > 100 µM
[11]
  TGI: > 100 µM
[12]
  TGI: > 100 µM
[13]
  TGI: > 100 µM
[14]
  TGI: > 100 µM
[15]
  TGI: > 100 µM
[16]
  TGI: > 100 µM
[17]
  TGI: > 100 µM
[18]
  TGI: > 100 µM
[19]
  TGI: > 100 µM
[20]
  TGI: > 100 µM
[21]
  TGI: > 100 µM
[22]
  TGI: > 100 µM
[23]
  TGI: > 100 µM
[24]
  TGI: > 100 µM
[25]
  TGI: > 100 µM
[26]
  TGI: > 100 µM
[27]
  TGI: > 100 µM
[28]
  TGI: > 100 µM
[29]
  TGI: > 100 µM
[30]
  TGI: > 100 µM
[31]
  TGI: > 100 µM
[32]
  TGI: > 100 µM
[33]
  TGI: > 100 µM
[34]
  TGI: > 100 µM
[35]
  TGI: > 100 µM
[36]
  TGI: > 100 µM
[37]
  TGI: > 100 µM
[38]
  TGI: > 100 µM
[39]
  TGI: > 100 µM
[40]
  TGI: > 100 µM
[41]
  TGI: > 100 µM
[42]
  TGI: > 100 µM
[43]
  TGI: > 100 µM
[44]
  TGI: > 100 µM
[45]
  TGI: > 100 µM
[46]
  TGI: > 100 µM
[47]
  TGI: > 100 µM
[48]
  TGI: > 100 µM
[49]
  TGI: > 100 µM

## COc1ccc(C2CC(c3sc(Nc4ccc(C)cc4)nc3C)=NN2)cc1 (stereo not given)
[2]
  TGI: 30.7 µM
[3]
  TGI: 33 µM
[50]
  TGI: 41.2 µM
[5]
  TGI: 54.7 µM
[6]
  TGI: 26.9 µM
[51]
  TGI: 35.7 µM
[7]
  TGI: 30 µM
[52]
  TGI: 38.5 µM
[8]
  TGI: 47.8 µM
[9]
  TGI: 30.1 µM
[53]
  TGI: 15.1 µM
[10]
  TGI: 39.1 µM
[11]
  TGI: 24.6 µM
[12]
  TGI: 35.4 µM
[13]
  TGI: 38.3 µM
[54]
  TGI: 30.3 µM
[55]
  TGI: 25.6 µM
[14]
  TGI: > 56.9 µM
[15]
  TGI: 39.1 µM
[16]
  TGI: 29.5 µM
[17]
  TGI: 31.3 µM
[18]
  TGI: 34.4 µM
[21]
  TGI: > 59 µM
[56]
  TGI: 31.7 µM
[23]
  TGI: 32.7 µM
[24]
  TGI: 33.5 µM
[25]
  TGI: 30.7 µM
[26]
  TGI: 30.3 µM
[27]
  TGI: 31.8 µM
[57]
  TGI: 32.4 µM
[28]
  TGI: 30.1 µM
[58]
  TGI: 18.3 µM
[29]
  TGI: 39.2 µM
[30]
  TGI: 35.9 µM
[59]
  TGI: 20.3 µM
[60]
  TGI: 24.3 µM
[31]
  TGI: 41.4 µM
[32]
  TGI: 27.1 µM
[33]
  TGI: 37.4 µM
[34]
  TGI: 30.5 µM
[35]
  TGI: 29 µM
[36]
  TGI: 30.7 µM
[37]
  TGI: 33.6 µM
[38]
  TGI: 30.1 µM
[39]
  TGI: 44.1 µM
[40]
  TGI: 28.9 µM
[61]
  TGI: 28.9 µM
[41]
  TGI: 33.8 µM
[42]
  TGI: 34.1 µM
[43]
  TGI: 52 µM
[44]
  TGI: 38.2 µM
[46]
  TGI: 28.4 µM
[47]
  TGI: 32.6 µM
[48]
  TGI: > 55.3 µM
[49]
  TGI: 29.4 µM
[62]
  TGI: 36.7 µM
